Data as given in ChEMBL document CHEMBL4118264, “Selective synthesis of 7-O-substituted luteolin derivatives and their melanonenesis and proliferation inhibitory activity in B16 melanoma cells” (2018).

Columns and labels:
Assay type in all cases: functional
B16 [1] = experiment: Inhibition of melanogenesis in mouse B16 cells assessed as intracellular melanogenesis activity at 6.25 uM after 72 hrs relative to control; design: scale not given: the % may be the effect or the level left
B16 [2] = experiment: Antiproliferative activity against mouse B16 cells assessed as cell proliferation level at 12.5 uM after 72 hrs by MTT assay relative to control
B16 [3] = experiment: Inhibition of melanogenesis in mouse B16 cells assessed as extracellular melanogenesis activity at 12.5 uM after 72 hrs relative to control; design: scale not given: the % may be the effect or the level left
B16 [4] = experiment: Antiproliferative activity against mouse B16 cells assessed as cell proliferation level at 25 uM after 72 hrs by MTT assay relative to control
B16 [5] = experiment: Antiproliferative activity against mouse B16 cells assessed as cell proliferation level at 50 uM after 72 hrs by MTT assay relative to control
B16 [6] = experiment: Inhibition of melanogenesis in mouse B16 cells assessed as intracellular melanogenesis activity at 25 uM after 72 hrs relative to control; design: scale not given: the % may be the effect or the level left
B16 [7] = experiment: Inhibition of melanogenesis in mouse B16 cells assessed as extracellular melanogenesis activity at 50 uM after 72 hrs relative to control; design: scale not given: the % may be the effect or the level left
B16 [8] = experiment: Inhibition of melanogenesis in mouse B16 cells assessed as intracellular melanogenesis activity at 50 uM after 72 hrs relative to control; design: scale not given: the % may be the effect or the level left
B16 [9] = experiment: Inhibition of melanogenesis in mouse B16 cells assessed as extracellular melanogenesis activity at 6.25 uM after 72 hrs relative to control; design: scale not given: the % may be the effect or the level left
B16 [10] = experiment: Inhibition of melanogenesis in mouse B16 cells assessed as extracellular melanogenesis activity at 25 uM after 72 hrs relative to control; design: scale not given: the % may be the effect or the level left
B16 [11] = experiment: Antiproliferative activity against mouse B16 cells assessed as cell proliferation level at 6.25 uM after 72 hrs by MTT assay relative to control
B16 [12] = experiment: Inhibition of melanogenesis in mouse B16 cells assessed as intracellular melanogenesis activity at 12.5 uM after 72 hrs relative to control; design: scale not given: the % may be the effect or the level left
B16 [13] = experiment: Antiproliferative activity against mouse B16 cells assessed as cell proliferation level at 730 uM after 72 hrs by MTT assay relative to control
B16 [14] = experiment: Inhibition of melanogenesis in mouse B16 cells assessed as extracellular melanogenesis activity at 730 uM after 72 hrs relative to control; design: scale not given: the % may be the effect or the level left
B16 [15] = experiment: Inhibition of melanogenesis in mouse B16 cells assessed as intracellular melanogenesis activity at 730 uM after 72 hrs relative to control; design: scale not given: the % may be the effect or the level left

| SMILES | Activity (B16 [1]) [%] | Activity (B16 [2]) [%] | Activity (B16 [3]) [%] | Activity (B16 [4]) [%] | Activity (B16 [5]) [%] | Activity (B16 [6]) [%] | Activity (B16 [7]) [%] | Activity (B16 [8]) [%] | Activity (B16 [9]) [%] | Activity (B16 [10]) [%] | Activity (B16 [11]) [%] | Activity (B16 [12]) [%] | Activity (B16 [13]) [%] | Activity (B16 [14]) [%] | Activity (B16 [15]) [%] |
| --- | --- | --- | --- | --- | --- | --- | --- | --- | --- | --- | --- | --- | --- | --- | --- |
| COc1cc(O)c2c(=O)cc(-c3ccc(O)c(O)c3)oc2c1 | 108 | 85 | 51 | 55 | 41 | 50 | 16 | 50 | 107 | 14 | 98 | 87 |  |  |  |
| OC[C@H]1O[C@@H](Oc2ccc(O)cc2)[C@H](O)[C@@H](O)[C@@H]1O [ARBUTIN] |  |  |  |  |  |  |  |  |  |  |  |  | 105 | 45 | 89 |
| O=c1cc(-c2ccc(O)c(O)c2)oc2cc(O)cc(O)c12 [LUTEOLIN] | 122 | 110 | 109 | 68 | 34 | 66 | 16 | 55 | 114 | 15 | 106 | 118 |  |  |  |
